Numbering of substitutions follows the chain as printed. Where two headings read alike, the source gives them in different places. Where a SMILES comes first, the peptide text is derived from it. Some results are limits rather than exact numbers.

The source of these data is US20100324829A1, “METHOD OF SELECTING HLA-DP4 LIGANDS AND THE APPLICATIONS THEREOF” (priority 2001, published 2010).

The target of assay [1] is T1, DP401 encoded by the DPA1*0103/DPB1*0401 allele (Homo sapiens, UniProt P04440+P20036).
T1 sequence (P20036 29-260): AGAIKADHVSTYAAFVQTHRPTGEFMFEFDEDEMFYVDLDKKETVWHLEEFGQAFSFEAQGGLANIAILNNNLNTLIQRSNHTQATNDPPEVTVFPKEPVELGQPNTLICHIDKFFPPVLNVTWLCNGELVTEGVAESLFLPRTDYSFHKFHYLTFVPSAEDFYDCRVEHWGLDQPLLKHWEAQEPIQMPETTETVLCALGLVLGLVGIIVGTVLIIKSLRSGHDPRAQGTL
T1 sequence (P04440 30-258): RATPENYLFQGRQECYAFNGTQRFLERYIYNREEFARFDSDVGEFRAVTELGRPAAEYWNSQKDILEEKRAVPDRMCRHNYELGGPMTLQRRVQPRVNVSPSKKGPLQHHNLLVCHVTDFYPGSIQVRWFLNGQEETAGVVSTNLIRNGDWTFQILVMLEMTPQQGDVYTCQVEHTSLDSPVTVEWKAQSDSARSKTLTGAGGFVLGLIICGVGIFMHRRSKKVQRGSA
Particulars: in words, summary of table V.

Assay [2] has as its target T2, HLA-DP4 molecule DPA1*0103/DPB1*0401 (DP401) (Homo sapiens, UniProt P04440+P20036).
T2 construct: purified from various human B lymphocyte lines transformed with the Epstein Barr virus (EBV), which are homozygotes for DP; endogenous in cells
T2 sequence (P20036 29-260): T1 sequence (P20036 29-260)
T2 sequence (P04440 30-258): T1 sequence (P04440 30-258)
The assay can be described thus: biochemical. The assay is classed as binding. The settings on record: for binding to the HLA-DP*0401 molecule: FIG. 1, in words, tracer bUNK1 10 nM.

For assay [3], the target named is T3, HLA-DP4 molecule DPA1*0103/DPB1*0402 (DP402) (Homo sapiens, UniProt P04440+P20036).
T3 construct: purified from various human B lymphocyte lines transformed with the Epstein Barr virus (EBV), which are homozygotes for DP; endogenous in cells
T3 sequence (P20036 29-260): T1 sequence (P20036 29-260)
T3 sequence (P04440 30-258 A65V/A84D/A85E): T1 sequence (P04440 30-258) with A36V, A55D, A56E
The assay can be described thus: biochemical. The assay is classed as binding.

Assay [4] deals with T4, HLA-DP4 molecule DPA1*0103/DPB1*0402 (DP402) (Homo sapiens, UniProt P04440+P20036, A65V/A84D/A85E/L207M).
T4 construct: purified from various human B lymphocyte lines transformed with the Epstein Barr virus (EBV), which are homozygotes for DP; endogenous in cells
T4 sequence (P20036 29-260): T1 sequence (P20036 29-260)
T4 sequence (P04440 30-258 A65V/A84D/A85E): T1 sequence (P04440 30-258) with A36V, A55D, A56E
The assay can be described thus: biochemical. The settings on record: for binding to the HLA-DP*0402 molecule: FIG. 1, in words, tracer bUNK1 10 nM. The class given is binding.

[5] abbreviates: DP*0401 IC50 (nM), Table XV, HLA-DP4-binding activity.
[6] abbreviates: DP*0402 IC50 (nM), Table XV, HLA-DP4-binding activity.
Setting [7] is: IC50 (nM) 401, Table XIII, binding to DPB1*0401, competition binding assay.
Setting [8] is: IC50 (nM) 402, Table XIII, binding to DPB1*0402, competition binding assay.

On to RELWWVFYAGDRALEEPHAE [bUL21 283-302], for which the DP4-binding capacity result in assay [1] is “intermediate”.

With “GPGAPADVQYDLYLNVANRR [bIL3 127-146, reference compound]”, the DP4-binding capacity result in assay [1] is “high”.

As to “IAFNSGMEPGVVAEKV [bMT 451-466, reference compound]”, the DP4-binding capacity result in assay [1] is given as “low”.

As for KYFAATQWEPLAA [UNK F10W], in assay [2], the “Loss of binding DP*0401” value worked out at 1; the “Loss of binding to DP*0401 (ratio of the IC50 values for the mutant peptide and for the UNK1 peptide)” value stood at 2.2. Also, the “Loss of binding to DP*0402 (ratio of the IC50 values for the mutant peptide and for the UNK1 peptide)” value in assay [3] was found to be 2.5. Besides, in assay [4], the “Loss of binding DP*0402” value stood at 1.

For the molecule FNNFTVSFWLRVPKVSA [bTT 947-963], the DP4-binding capacity entry in assay [1] is given as “low”.

What is called IC50 is the concentration that inhibits the measured activity by half. With `CC(C)C[C@H](NC(=O)[C@H](Cc1ccc(O)cc1)NC(=O)[C@H](CC(N)=O)NC(=O)[C@H](CCC(=O)O)NC(=O)[C@H](CCC(N)=O)NC(=O)[C@@H](NC(=O)[C@H](Cc1ccccc1)NC(=O)[C@H](Cc1c[nH]cn1)NC(=O)[C@H](CCC(N)=O)NC(=O)[C@@H](NC(=O)[C@H](CC(C)C)NC(=O)[C@@H](N)CC(C)C)[C@@H](C)O)C(C)C)C(=O)N[C@@H](CCC(=O)O)C(=O)N[C@@H](Cc1ccc(O)cc1)C(=O)O` [MAG 245-258], the IC50 in assay [2] (setting [5]) came to 250 nM; in assay [4] (setting [6]) it was 400 nM.

Take `CC[C@H](C)[C@H](NC(=O)[C@H](Cc1ccccc1)NC(=O)[C@H](Cc1c[nH]cn1)NC(=O)[C@H](C)NC(=O)[C@H](CC(=O)O)NC(=O)[C@H](CCC(=O)O)NC(=O)[C@H](CCCNC(=N)N)NC(=O)[C@@H]1CCCN1C(=O)[C@@H](N)CCSC)C(=O)N[C@@H](Cc1ccc(O)cc1)C(=O)NCC(=O)N[C@@H](Cc1ccc(O)cc1)C(=O)N1CCC[C@H]1C(=O)N[C@@H](CCCCN)C(=O)N[C@@H](CCCCN)C(=O)NCC(=O)N[C@@H](Cc1c[nH]cn1)C(=O)NCC(=O)N[C@@H](Cc1c[nH]cn1)C(=O)N[C@@H](CO)C(=O)O` [MART1 1-20]: the concentration for half-maximal inhibition (IC50) in assay [2] (setting [5]), in assay [2] (setting [7]), in assay [4] (setting [6]) and in assay [4] (setting [8]) was above 10000 nM throughout.

In the case of “GVQIVRQIRSGERFLKIWSQ [bNS-p2, reference compound]”, the DP4-binding capacity result in assay [1] is on record as “intermediate”.

For `CSCC[C@H](NC(=O)[C@@H](N)CC(C)C)C(=O)N[C@@H](CC(=O)O)C(=O)N[C@@H](CCCCN)C(=O)N[C@@H](CO)C(=O)N[C@@H](CC(C)C)C(=O)N[C@@H](Cc1c[nH]cn1)C(=O)N[C@H](C(=O)NCC(=O)N[C@H](C(=O)N[C@@H](CCC(N)=O)C(=O)N[C@@H](CS)C(=O)N[C@@H](C)C(=O)N[C@@H](CC(C)C)C(=O)N[C@H](C(=O)N[C@@H](CCCNC(=N)N)C(=O)N[C@@H](CCCNC(=N)N)C(=O)N[C@@H](CS)C(=O)N1CCC[C@H]1C(=O)N[C@@H](CCC(N)=O)C(=O)O)[C@@H](C)O)[C@@H](C)O)C(C)C` [MART1 62-72], the half-maximal inhibitory concentration (IC50) in assay [2] (setting [5]), in assay [2] (setting [7]), in assay [4] (setting [6]) and in assay [4] (setting [8]) was above 10000 nM in each case.

For the molecule `CC(C)C[C@H](NC(=O)[C@H](Cc1c[nH]c2ccccc12)NC(=O)[C@H](Cc1ccccc1)NC(=O)[C@H](CO)NC(=O)[C@@H](NC(=O)[C@@H](NC(=O)[C@H](Cc1ccccc1)NC(=O)[C@H](CC(N)=O)NC(=O)[C@H](CC(N)=O)NC(=O)[C@@H](N)Cc1ccccc1)[C@@H](C)O)C(C)C)C(=O)N[C@@H](CCCNC(=N)N)C(=O)N[C@H](C(=O)N1CCC[C@H]1C(=O)N[C@@H](CCCCN)C(=O)N[C@H](C(=O)N[C@@H](CO)C(=O)N[C@@H](C)C(=O)O)C(C)C)C(C)C` [TT947-963] (H-FNNFTVSFWLRVPKVSA-OH), the values for the concentration for half-maximal inhibition (IC50) in assay [2] and in assay [4] were 4.61 nM and 7 nM, respectively.

In the case of LLTQHFVQENYLEY [bMAG 245-258], the DP4-binding capacity entry in assay [1] was “intermediate”.

Regarding `CC[C@H](C)[C@H](NC(=O)[C@@H](N)Cc1c[nH]c2ccccc12)C(=O)N[C@H](C(=O)N[C@@H](CCC(N)=O)C(=O)N[C@@H](CS)C(=O)N[C@@H](Cc1ccccc1)C(=O)N[C@@H](CC(C)C)C(=O)N1CCC[C@H]1C(=O)N[C@H](C(=O)O)C(C)C)[C@@H](C)O` (H-WITQCFLPV-OH; N-terminus and C-terminus assumed), the IC50 is 20 nM in assay [2] (calculated activity (using the DP*0401-binding assay)) and 67 nM in assay [4] (calculated activity (using the DP*0402-binding assay)).

As for FNNFTVSFWLRVPKVSA [TT 947-963], the “binding to the HLA-DP*0401 molecule” value in assay [2] was “effectively bind”. Besides, the “binding to the HLA-DP*0402 molecule” value in assay [4] is reported as “effectively bind”.

In the case of “DVEVYRAVTPLGPPD [DQB 43-57, reference compound]”, in assay [2], the “binding to the HLA-DP*0401 molecule” value is listed as “do not bind”. Besides, in assay [4], the “binding to the HLA-DP*0402 molecule” value is “do not bind”.

With `CC[C@H](C)[C@H](NC(=O)[C@@H](NC(=O)[C@H](CC(=O)O)NC(=O)[C@H](C)NC(=O)[C@H](CO)NC(=O)[C@@H](N)CC(N)=O)[C@@H](C)O)C(=O)N[C@@H](CO)C(=O)N[C@@H](CO)C(=O)N[C@@H](Cc1ccc(O)cc1)C(=O)N[C@@H](Cc1ccccc1)C(=O)N[C@H](C(=O)NCC(=O)N[C@@H](CCCCN)C(=O)N[C@@H](CCSC)C(=O)N[C@@H](Cc1ccc(O)cc1)C(=O)N[C@@H](Cc1ccccc1)C(=O)N[C@@H](CC(N)=O)C(=O)N[C@@H](CC(C)C)C(=O)O)C(C)C` [73-90], the half-inhibitory concentration (IC50) in assay [2] (setting [7]) was above 10000 nM; in assay [2] (IC50 (nM) DP0401, Api m1 overlapping peptides, tracer bUNK 1-17 10 nM, pH 5, 24 h) it was above 10000 nM; in assay [4] (setting [8]), above 10000 nM; in assay [4] (IC50 (nM) DP0402, Api m1 overlapping peptides, tracer bUNK 1-17 10 nM, pH 5, 24 h) it was above 10000 nM.

As to `CC[C@H](C)[C@H](NC(=O)[C@H](CCCCN)NC(=O)[C@H](CC(C)C)NC(=O)[C@H](Cc1ccccc1)NC(=O)[C@H](CCCNC(=N)N)NC(=O)[C@H](CCC(=O)O)NC(=O)CNC(=O)[C@H](CO)NC(=O)[C@H](CCCNC(=N)N)NC(=O)[C@@H](NC(=O)[C@H](CCC(N)=O)NC(=O)[C@H](CCCNC(=N)N)NC(=O)[C@@H](NC(=O)[C@@H](NC(=O)[C@H](CCC(N)=O)NC(=O)[C@@H](NC(=O)CN)C(C)C)[C@@H](C)CC)C(C)C)[C@@H](C)CC)C(=O)N[C@@H](Cc1c[nH]c2ccccc12)C(=O)N[C@@H](CO)C(=O)N[C@@H](CCC(N)=O)C(=O)O` [NS-p2, reference compound], the concentration for half-maximal inhibition (IC50) in assay [2] and in assay [4] was 40 nM throughout.
